Results: PubChem BioAssay AID1963873 (Molecular Pharmacology Branch, DTP, NCI, 2024)

Tested on: 276233-004-R-J1-PDC KRAS spheroids with HUVEC/MSC, viability
Test: Anticancer human tumor 276233-004-R-J1-PDC patient-derived colon adenocarcinoma cell line growth inhibition [KRAS2]
Conditions: for IC50: curve of first compound; for viability, T/C: stronger effect = lower value; active means viability on the fitted dose curve at most 10% of control; inactive means the rest
Procedure, shortened: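 Combination screen of spheroid viability in tumor-cell co-cultures with endothelial (HUVEC) and mesenchymal stem cell stroma. Each agent was tested in half-log dilutions, topping at clinical Cmax or at 10 microM without a known Cmax.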

[1] = second compound 0.1 µM, first compound 0.0001 µM
[2] = second compound 0.1 µM, first compound 0.000316 µM
[3] = second compound 0.1 µM, first compound 0.001 µM
[4] = second compound 0.1 µM, first compound 0.00316 µM
[5] = second compound 0.1 µM, first compound 0.01 µM
[6] = second compound 0.1 µM, first compound 0.0316 µM
[7] = second compound 0.316 µM, first compound 0.0001 µM
[8] = second compound 0.316 µM, first compound 0.000316 µM
[9] = second compound 0.316 µM, first compound 0.001 µM
[10] = second compound 0.316 µM, first compound 0.00316 µM
[11] = second compound 0.316 µM, first compound 0.01 µM
[12] = second compound 0.316 µM, first compound 0.0316 µM
[13] = second compound 1 µM, first compound 0.0001 µM
[14] = second compound 1 µM, first compound 0.000316 µM
[15] = second compound 1 µM, first compound 0.001 µM
[16] = second compound 1 µM, first compound 0.00316 µM
[17] = second compound 1 µM, first compound 0.01 µM
[18] = second compound 1 µM, first compound 0.0316 µM
[19] = second compound 3.16 µM, first compound 0.0001 µM
[20] = second compound 3.16 µM, first compound 0.000316 µM
[21] = second compound 3.16 µM, first compound 0.001 µM
[22] = second compound 3.16 µM, first compound 0.00316 µM
[23] = second compound 3.16 µM, first compound 0.01 µM
[24] = second compound 3.16 µM, first compound 0.0316 µM
[25] = second compound 10 µM, first compound 0.0316 µM
[26] = second compound 0.1 µM, first compound 0.1 µM
[27] = second compound 0.1 µM, first compound 0.316 µM
[28] = second compound 0.1 µM, first compound 1 µM
[29] = second compound 0.1 µM, first compound 3.16 µM
[30] = second compound 0.1 µM, first compound 10 µM
[31] = second compound 0.316 µM, first compound 0.1 µM
[32] = second compound 0.316 µM, first compound 0.316 µM
[33] = second compound 0.316 µM, first compound 1 µM
[34] = second compound 0.316 µM, first compound 3.16 µM
[35] = second compound 0.316 µM, first compound 10 µM
[36] = second compound 1 µM, first compound 0.1 µM
[37] = second compound 1 µM, first compound 0.316 µM
[38] = second compound 1 µM, first compound 1 µM
[39] = second compound 1 µM, first compound 3.16 µM
[40] = second compound 1 µM, first compound 10 µM
[41] = second compound 3.16 µM, first compound 0.1 µM
[42] = second compound 3.16 µM, first compound 0.316 µM
[43] = second compound 3.16 µM, first compound 1 µM
[44] = second compound 3.16 µM, first compound 3.16 µM
[45] = second compound 3.16 µM, first compound 10 µM
[46] = second compound 10 µM, first compound 0.1 µM
[47] = second compound 10 µM, first compound 0.316 µM
[48] = second compound 10 µM, first compound 1 µM
[49] = second compound 10 µM, first compound 3.16 µM
[50] = second compound 10 µM, first compound 10 µM
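Further: cells exposed to agents for seven days before viability read.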
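Wherever viability, T/C is given: 100% = DMSO vehicle control wells and lower values mean fewer viable cells.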

CC(=O)Nc1cccc(-n2c(=O)n(C3CC3)c(=O)c3c(Nc4ccc(I)cc4F)n(C)c(=O)c(C)c32)c1 + CNCc1ccccc1-c1csc(C(C)Nc2nc(C)nc3cc(OC)c(OC)cc23)c1
inactive: viability, T/C [1] 97.3% | viability, T/C [2] 77.5% | viability, T/C [3] 90.5% | viability, T/C [4] 59.2% | viability, T/C [5] 40.1% | viability, T/C [6] 15.5% | viability, T/C [7] 93.5% | viability, T/C [8] 82.1% | viability, T/C [9] 83.7% | viability, T/C [10] 57% | viability, T/C [11] 35.2% | viability, T/C [12] 17.3% | viability, T/C [13] 69.4% | viability, T/C [14] 56.5% | viability, T/C [15] 61.1% | viability, T/C [16] 27.6% | viability, T/C [17] 23.1% | viability, T/C [18] 9.49%
< 0.1 nM: IC50 (second compound 3.16 µM) | IC50 (second compound 10 µM)
5.93 nM: IC50 (second compound 0.1 µM)
1.42 nM: IC50 (second compound 1 µM)
active: viability, T/C [19] 5.56% | viability, T/C [20] 0.89% | viability, T/C [21] 3.86% | viability, T/C [22] 1.97% | viability, T/C [23] 0.56% | viability, T/C [24] 0.49% | viability, T/C (second compound 10 µM, first compound 0.0001 µM) 0.21% | viability, T/C (second compound 10 µM, first compound 0.000316 µM) 2.92% | viability, T/C (second compound 10 µM, first compound 0.001 µM) 4.6% | viability, T/C (second compound 10 µM, first compound 0.00316 µM) 3.3% | viability, T/C (second compound 10 µM, first compound 0.01 µM) 0.22% | viability, T/C [25] 3.97%
4.86 nM: IC50 (second compound 0.316 µM)

CC(=O)Nc1cccc(-n2c(=O)n(C3CC3)c(=O)c3c(Nc4ccc(I)cc4F)n(C)c(=O)c(C)c32)c1 + C=CC(=O)N1CCN(c2nc(OCC3CCCN3C)nc3c2CCN(c2cccc4cccc(C)c24)C3)CC1CC#N
7.53 nM: IC50 (second compound 0.0316 µM)
0.141 nM: IC50 (second compound 3.16 µM)
2.49 nM: IC50 (second compound 1 µM)
4.73 nM: IC50 (second compound 0.316 µM)
active: viability, T/C [12] 10% | viability, T/C [18] 7% | viability, T/C [23] 4.17% | viability, T/C [24] 3.27%
inactive: viability, T/C (second compound 0.0316 µM, first compound 0.0001 µM) 79.5% | viability, T/C (second compound 0.0316 µM, first compound 0.000316 µM) 92.4% | viability, T/C (second compound 0.0316 µM, first compound 0.001 µM) 81.2% | viability, T/C (second compound 0.0316 µM, first compound 0.00316 µM) 66.9% | viability, T/C (second compound 0.0316 µM, first compound 0.01 µM) 44.9% | viability, T/C (second compound 0.0316 µM, first compound 0.0316 µM) 16.8% | viability, T/C [1] 82.2% | viability, T/C [2] 86.3% | viability, T/C [3] 72.8% | viability, T/C [4] 63.1% | viability, T/C [5] 50.4% | viability, T/C [6] 22.6% | viability, T/C [7] 76.1% | viability, T/C [8] 83.7% | viability, T/C [9] 61.6% | viability, T/C [10] 64.7% | viability, T/C [11] 31.5% | viability, T/C [13] 93.3% | viability, T/C [14] 95.9% | viability, T/C [15] 60.6% | viability, T/C [16] 47% | viability, T/C [17] 25.4% | viability, T/C [19] 57.5% | viability, T/C [20] 32.3% | viability, T/C [21] 16.7% | viability, T/C [22] 14.7%
9.05 nM: IC50 (second compound 0.1 µM)

CC1(C)CCC(CN2CCN(c3ccc(C(=O)NS(=O)(=O)c4ccc(NCC5CCOCC5)c([N+](=O)[O-])c4)c(Oc4cnc5[nH]ccc5c4)c3)CC2)=C(c2ccc(Cl)cc2)C1 + C=CC(=O)N1CCN(c2nc(=O)n(-c3c(C)ccnc3C(C)C)c3nc(-c4c(O)cccc4F)c(F)cc23)C(C)C1
8590 nM: IC50 (second compound 1 µM)
9580 nM: IC50 (second compound 0.316 µM)
inactive: viability, T/C [6] 84.2% | viability, T/C [26] 105% | viability, T/C [27] 97.6% | viability, T/C [28] 93.6% | viability, T/C [29] 107% | viability, T/C [30] 44.9% | viability, T/C [12] 98.4% | viability, T/C [31] 108% | viability, T/C [32] 104% | viability, T/C [33] 105% | viability, T/C [34] 92.2% | viability, T/C [35] 47.9% | viability, T/C [18] 92.8% | viability, T/C [36] 108% | viability, T/C [37] 91.4% | viability, T/C [38] 109% | viability, T/C [39] 84.8% | viability, T/C [40] 44.7% | viability, T/C [24] 80.1% | viability, T/C [41] 96.9% | viability, T/C [42] 88.7% | viability, T/C [43] 102% | viability, T/C [44] 89.6% | viability, T/C [45] 46.5% | viability, T/C [25] 96.6% | viability, T/C [46] 73.2% | viability, T/C [47] 69.3% | viability, T/C [48] 84.2% | viability, T/C [49] 81.1% | viability, T/C [50] 57%
8940 nM: IC50 (second compound 0.1 µM)
> 10000 nM: IC50 (second compound 10 µM)
9150 nM: IC50 (second compound 3.16 µM)

COc1cc(Nc2ncc3c(n2)-c2ccc(Cl)cc2C(c2c(F)cccc2OC)=NC3)ccc1C(=O)O + CC1OCC2(CCN(c3cnc(Sc4ccnc(N)c4Cl)c(N)n3)CC2)C1N
> 10000 nM: IC50 (second compound 0.1 µM) | IC50 (second compound 0.316 µM) | IC50 (second compound 1 µM)
< 31.6 nM: IC50 (second compound 10 µM)
inactive: viability, T/C [6] 107% | viability, T/C [26] 85.6% | viability, T/C [27] 86% | viability, T/C [28] 75.6% | viability, T/C [29] 99% | viability, T/C [30] 68.5% | viability, T/C [12] 83.9% | viability, T/C [31] 82.5% | viability, T/C [32] 84.7% | viability, T/C [33] 82.4% | viability, T/C [34] 67.1% | viability, T/C [35] 64% | viability, T/C [18] 75% | viability, T/C [36] 73.8% | viability, T/C [37] 75.2% | viability, T/C [38] 74.9% | viability, T/C [39] 65% | viability, T/C [40] 52.2% | viability, T/C [24] 61% | viability, T/C [41] 51.1% | viability, T/C [42] 51.3% | viability, T/C [43] 55.2% | viability, T/C [44] 44.4% | viability, T/C [45] 45.2% | viability, T/C [25] 46.5% | viability, T/C [46] 49.2% | viability, T/C [47] 41.9% | viability, T/C [48] 42% | viability, T/C [49] 54% | viability, T/C [50] 48%
865 nM: IC50 (second compound 3.16 µM)
